Data from article PMC9604729, “Unusual Tetrahydropyridoindole-Containing Tetrapeptides with Human Nicotinic Acetylcholine Receptors Targeting Activity Discovered from Antarctica-Derived Psychrophilic Pseudogymnoascus sp. HDN17-933” (Marine Drugs, 2022).
“And” between values parts separate entries of the source, which are not always exact repeats. Equal values may be shown once. Read-outs that look alike come from different tables or passages of the source. Square brackets hold non-standard residues; d marks the D form. Ends that are not written are not given here. Peptide text beside a SMILES is read from it. Tpi = O=C(O)[C@@H]1Cc2c([nH]c3ccccc23)CN1

Tests used:
NF-kB = system: NF-kB; design: method as in doi:10.1016/j.tet.2012.09.038; settings: cited from earlier work
HL60 cell lines = settings: cited from earlier work
human (h) α1β1εδ nAChR [1] = target: T1, human (h) α1β1εδ nAChR (Homo sapiens, UniProt P02708+P11230+Q04844+Q07001); experiment: Two-electrode voltage clamp, inhibition of ACh-evoked currents at hα1β1εδ nAChR in Xenopus oocytes; type: cell-based; settings: for Relative current amplitude (h) α1β1εδ: compound 100 µM, currents activated by 5 μM ACh, ratio ACh + compound to ACh alone, mean ± SD, n = 6–11
T1 construct: host or cells: Xenopus laevis oocytes, cRNA injected
Method: (§1) All procedures were approved by the University of Wollongong Animal Ethics Committees (project number: AE2003). Female Xenopus laevis were sourced from Nasco (Fort Atkinson, WI, USA), and a maximum of four frogs were kept in a 15 L aquarium at 20–26 °C with 12 h light/dark cycle. Oocytes were obtained from five-year-old frogs anesthetized with 1.7 mg/mL ethyl 3-aminobenzoate methanesulfonate (pH 7.4 with NaHCO3). Stage V-VI oocytes (Dumont’s classification; 1200–1300 μm diameter) were defolliculated with 1.5 mg/mL collagenase Type II (Worthington Biochemical Corp., Lakewood, NJ, USA) at room temperature for 1–2 h in OR-2 solution containing (in mM): 82.5 NaCl, 2 KCl, 1 MgCl2 and 5 HEPES at pH 7.4.
(§2) The human muscle nAChR clones (α1, β1, γ, δ and ε) were purchased from Integrated DNA Technologies (Coralville, IA, USA), whereas the human α3, α9, α10, β2, and β4 clones were purchased from OriGene (Rockville, MD, USA), and all were subsequently inserted into the pT7TS vector. The human α4 and α7 clones were obtained from Prof. Jon Lindstrom (University of Pennsylvania, Philadelphia, PA, USA). Plasmid constructs of the human nAChR clones were linearized for in vitro mRNA synthesis using mMessage mMachine transcription kit (AMBION, Forster City, CA, USA).
(§3) Oocytes were injected with 5 ng cRNA for hα1β1γδ, hα1β1εδ, hα3β2, hα3β4 and hα4β2, 10 ng cRNA for hα7 nAChR, and 35 ng cRNA for hα9α10 nAChR (concentration confirmed spectrophotometrically and by gel electrophoresis). The muscle subunit cRNA ratio was 2:1:1:1 (α1:β1: γ/ε:δ), whereas the heteromeric α and β subunit cRNA ratio was 1:1, injected using glass pipettes pulled from glass capillaries (3-000-203 GX, Drummond Scientific Co., Broomall, PA, USA). Oocytes were incubated at 18 °C in sterile ND96 solution composed of (in mM): 96 NaCl, 2 KCl, 1 CaCl2, 1 MgCl2, and 5 HEPES at pH 7.4, supplemented with 5% fetal bovine serum, 50 mg/L gentamicin (GIBCO, Grand Island, NY, USA) and […] penicillin-streptomycin (GIBCO).
(§4) Electrophysiological recordings were carried out 2–5 days post cRNA microinjection. Two-electrode voltage clamp recordings of X. laevis oocytes expressing human nAChRs were performed at room temperature (21–24 °C) using a GeneClamp 500B amplifier and pClamp9 software interface (Molecular Devices, Sunnyvale, CA, USA) at a holding potential −80 mV. Voltage-recording and current-injecting electrodes were pulled from GC150T-7.5 borosilicate glass (Harvard Apparatus, Holliston, MA) and filled with 3 M KCl, giving resistances of 0.3–1 MΩ. Due to the Ca^2+ permeability of α9α10 nAChRs, 100 µM BAPTA-AM incubation was carried out before recording to prevent the activation of X. laevis oocyte endogenous Ca^2+-activated chloride channels. Oocytes expressing hα9α10 nAChRs were perfused with ND115 solution containing (in mM): 115 NaCl, 2.5 KCl, 1.8 CaCl2, and 10 HEPES at pH 7.4, whereas oocytes expressing all other nAChR subtypes were perfused with ND96 solution using a continuous Legato 270 push/pull syringe pump perfusion system (KD Scientific, Holliston, MA, USA) at a rate of 2 mL/min in an OPC-1 perfusion chamber of <20 µL volume (Automate Scientific, Berkeley, CA, USA).
(§5) Initially, oocytes were briefly washed with ND115/ND96 solution, followed by 3 applications of ACh at a half-maximal excitatory ACh concentration (EC50) for the nAChR subtypes (3 µM for hα4β2, 5 µM for hα1β1γδ and hα1β1εδ, 6 µM for hα3β2 and hα9α10, 100 µM for hα7 and 300 µM for hα3β4). Washout with bath solution was performed for 3 min between ACh applications. Oocytes were incubated with compounds for 5 min with the perfusion system turned off, followed by co-application of ACh and compound with flowing bath solution. All compound solutions were prepared in ND115/ND96 + 0.1% bovine serum albumin (BSA). Incubation with 0.1% BSA was performed to ensure that the BSA and the pressure of the perfusion system had no effect on nAChRs. […]
Target sequence in this assay (P02708 21-457 limits assumed): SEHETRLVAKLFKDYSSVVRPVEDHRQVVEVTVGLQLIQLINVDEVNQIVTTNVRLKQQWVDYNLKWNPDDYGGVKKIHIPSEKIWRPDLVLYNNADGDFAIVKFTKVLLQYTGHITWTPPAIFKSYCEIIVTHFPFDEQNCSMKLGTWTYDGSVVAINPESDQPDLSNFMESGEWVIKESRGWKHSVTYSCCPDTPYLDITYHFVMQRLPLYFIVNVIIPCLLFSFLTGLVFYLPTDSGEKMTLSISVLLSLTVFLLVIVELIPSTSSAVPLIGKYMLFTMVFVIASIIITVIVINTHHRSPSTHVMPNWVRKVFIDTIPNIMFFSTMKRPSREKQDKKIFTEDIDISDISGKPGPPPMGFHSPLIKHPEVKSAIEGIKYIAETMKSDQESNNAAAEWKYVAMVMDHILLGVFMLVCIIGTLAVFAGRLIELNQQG
Target sequence in this assay (P11230 24-501 limits assumed): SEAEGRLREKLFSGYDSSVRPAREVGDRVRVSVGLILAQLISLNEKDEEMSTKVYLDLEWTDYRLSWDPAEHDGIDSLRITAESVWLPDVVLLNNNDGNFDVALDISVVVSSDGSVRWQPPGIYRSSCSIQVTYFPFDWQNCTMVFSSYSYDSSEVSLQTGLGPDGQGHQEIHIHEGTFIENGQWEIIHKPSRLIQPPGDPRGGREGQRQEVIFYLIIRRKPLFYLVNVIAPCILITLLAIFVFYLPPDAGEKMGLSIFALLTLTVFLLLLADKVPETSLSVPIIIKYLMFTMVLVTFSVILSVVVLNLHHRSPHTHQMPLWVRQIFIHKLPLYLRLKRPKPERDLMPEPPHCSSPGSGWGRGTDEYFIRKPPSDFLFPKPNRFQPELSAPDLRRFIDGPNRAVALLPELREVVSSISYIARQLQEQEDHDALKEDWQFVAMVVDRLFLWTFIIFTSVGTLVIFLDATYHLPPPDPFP
Target sequence in this assay (Q04844 21-493 limits assumed): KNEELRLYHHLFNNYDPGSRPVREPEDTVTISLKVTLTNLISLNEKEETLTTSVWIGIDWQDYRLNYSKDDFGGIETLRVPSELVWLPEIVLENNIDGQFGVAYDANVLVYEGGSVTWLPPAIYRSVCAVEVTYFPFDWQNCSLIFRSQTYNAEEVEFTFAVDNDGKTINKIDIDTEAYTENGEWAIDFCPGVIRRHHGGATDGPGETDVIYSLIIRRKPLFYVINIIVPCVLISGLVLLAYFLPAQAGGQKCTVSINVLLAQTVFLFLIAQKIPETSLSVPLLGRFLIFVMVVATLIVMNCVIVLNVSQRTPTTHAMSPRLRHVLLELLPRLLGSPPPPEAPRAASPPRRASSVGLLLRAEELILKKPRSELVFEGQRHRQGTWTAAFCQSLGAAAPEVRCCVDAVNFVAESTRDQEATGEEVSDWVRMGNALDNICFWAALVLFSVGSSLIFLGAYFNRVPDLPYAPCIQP
Target sequence in this assay (Q07001 22-517 limits assumed): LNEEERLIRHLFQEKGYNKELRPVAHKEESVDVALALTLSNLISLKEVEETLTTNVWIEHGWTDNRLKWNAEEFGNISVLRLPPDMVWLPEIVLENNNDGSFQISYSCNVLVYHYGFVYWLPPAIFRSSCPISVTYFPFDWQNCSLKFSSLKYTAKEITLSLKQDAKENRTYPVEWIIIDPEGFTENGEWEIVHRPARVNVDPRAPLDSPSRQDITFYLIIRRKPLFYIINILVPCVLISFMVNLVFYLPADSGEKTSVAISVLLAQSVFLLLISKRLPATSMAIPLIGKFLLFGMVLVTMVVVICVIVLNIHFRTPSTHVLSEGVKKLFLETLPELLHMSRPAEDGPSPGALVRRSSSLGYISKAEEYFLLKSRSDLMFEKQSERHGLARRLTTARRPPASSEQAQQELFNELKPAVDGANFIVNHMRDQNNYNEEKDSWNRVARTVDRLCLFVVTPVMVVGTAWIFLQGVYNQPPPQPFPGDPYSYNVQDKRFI

human (h) α1β1γδ nAChR = target: T2, human (h) α1β1γδ nAChR (Homo sapiens, UniProt P02708+P07510+P11230+Q07001); experiment: Two-electrode voltage clamp, inhibition of ACh-evoked currents at hα1β1γδ nAChR in Xenopus oocytes; type: cell-based; settings: for Relative current amplitude (h)α1β1γδ: compound 100 µM, currents activated by 5 μM ACh, ratio ACh + compound to ACh alone, mean ± SD, n = 6–11
T2 construct: host or cells: Xenopus laevis oocytes, cRNA injected
Method: as §1, §2, §3, §4, §5

human (h) α3β2 nAChR = target: T3, human (h) α3β2 nAChR (Homo sapiens, UniProt P17787+P32297); experiment: Two-electrode voltage clamp, inhibition of ACh-evoked currents at hα3β2 nAChR in Xenopus oocytes; type: cell-based; settings: for Relative current amplitude (h)α3β2: compound 100 µM, currents activated by 6 μM ACh, ratio ACh + compound to ACh alone, mean ± SD, n = 6–11
T3 construct: host or cells: Xenopus laevis oocytes, cRNA injected
Method: as §1, §2, §3, §4, §5

human (h) α3β4 nAChR = target: T4, human (h) α3β4 nAChR (Homo sapiens, UniProt P30926+P32297); experiment: Two-electrode voltage clamp, inhibition of ACh-evoked currents at hα3β4 nAChR in Xenopus oocytes; type: cell-based; settings: for Relative current amplitude (h)α3β4: compound 100 µM, currents activated by 300 μM ACh, ratio ACh + compound to ACh alone, mean ± SD, n = 6–11
T4 construct: host or cells: Xenopus laevis oocytes, cRNA injected
Method: as §1, §2, §3, §4, §5

human (h) α4β2 nAChR = target: T5, human (h) α4β2 nAChR (Homo sapiens, UniProt P17787+P43681); experiment: Two-electrode voltage clamp, inhibition of ACh-evoked currents at hα4β2 nAChR in Xenopus oocytes; type: cell-based; settings: for Relative current amplitude (h)α4β2: compound 100 µM, currents activated by 3 μM ACh, ratio ACh + compound to ACh alone, mean ± SD, n = 6–11
T5 construct: Jon Lindstrom; β2: OriGene (clones); host or cells: Xenopus laevis oocytes, cRNA injected
Method: as §1, §2, §3, §4, §5

human (h) α7 nAChR = target: T6, human (h) α7 nAChR (Homo sapiens, UniProt P36544); experiment: Two-electrode voltage clamp, inhibition of ACh-evoked currents at hα7 nAChR in Xenopus oocytes; type: cell-based; settings: compound 100 µM; currents activated by 100 μM ACh; ratio ACh + compound to ACh alone; mean ± SD, n = 6–11
T6 construct: Jon Lindstrom (clone); host or cells: Xenopus laevis oocytes, cRNA injected
Method: as §1, §2, §3, §4, §5

human (h) α9α10 nAChR = target: T7, human (h) α9α10 nAChR (Homo sapiens, UniProt Q9GZZ6+Q9UGM1); experiment: Two-electrode voltage clamp, inhibition of ACh-evoked currents at hα9α10 nAChR in Xenopus oocytes; type: cell-based; settings: for Relative current amplitude (h)α9α10: compound 100 µM, currents activated by 6 μM ACh, ratio ACh + compound to ACh alone, mean ± SD, n = 6–11
T7 construct: host or cells: Xenopus laevis oocytes, cRNA injected
Method: as §1, §2, §3, §4, §5

BEL-7047 cell lines = system: BEL-7047 cell lines; design: method as in doi:10.1016/j.tet.2008.11.078; settings: read-out: IC50, cytotoxicity against BEL-7047 cell lines; cited from earlier work
human (h) α1β1εδ nAChR [2] = target: T1, human (h) α1β1εδ nAChR; settings: read-out: half-maximal inhibitory concentration (IC50), ACh-evoked currents mediated by hα1β1εδ; cited from earlier work
Balamus amphitrite = system: Balamus amphitrite; design: method as in doi:10.1016/j.tetlet.2015.12.026; settings: cited from earlier work
[3] = compound 100 µM (Figure 3, Table S1), 100 µM
[4] = compound 100 µM (Figure 3, Table S1)

T2 sequence (P11230 24-501): as the sequence (P11230 24-501 limits assumed) above
T2 sequence (P07510 23-517): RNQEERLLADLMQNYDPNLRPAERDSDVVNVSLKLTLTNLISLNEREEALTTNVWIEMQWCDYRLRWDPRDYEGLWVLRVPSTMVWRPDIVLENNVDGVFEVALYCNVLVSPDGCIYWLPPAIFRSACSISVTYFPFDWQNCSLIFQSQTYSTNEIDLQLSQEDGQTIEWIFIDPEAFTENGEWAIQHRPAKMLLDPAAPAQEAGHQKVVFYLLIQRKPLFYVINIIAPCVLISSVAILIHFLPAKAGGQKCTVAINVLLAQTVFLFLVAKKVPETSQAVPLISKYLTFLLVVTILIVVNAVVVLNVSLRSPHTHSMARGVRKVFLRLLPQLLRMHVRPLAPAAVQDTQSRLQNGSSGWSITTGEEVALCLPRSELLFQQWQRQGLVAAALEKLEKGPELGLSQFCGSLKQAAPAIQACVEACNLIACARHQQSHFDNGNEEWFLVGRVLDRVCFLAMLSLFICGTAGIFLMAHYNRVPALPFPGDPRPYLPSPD
T2 sequence (P02708 21-457): as the sequence (P02708 21-457 limits assumed) above
T2 sequence (Q07001 22-517): as the sequence (Q07001 22-517 limits assumed) above
T7 sequence (Q9UGM1 26-479 limits assumed): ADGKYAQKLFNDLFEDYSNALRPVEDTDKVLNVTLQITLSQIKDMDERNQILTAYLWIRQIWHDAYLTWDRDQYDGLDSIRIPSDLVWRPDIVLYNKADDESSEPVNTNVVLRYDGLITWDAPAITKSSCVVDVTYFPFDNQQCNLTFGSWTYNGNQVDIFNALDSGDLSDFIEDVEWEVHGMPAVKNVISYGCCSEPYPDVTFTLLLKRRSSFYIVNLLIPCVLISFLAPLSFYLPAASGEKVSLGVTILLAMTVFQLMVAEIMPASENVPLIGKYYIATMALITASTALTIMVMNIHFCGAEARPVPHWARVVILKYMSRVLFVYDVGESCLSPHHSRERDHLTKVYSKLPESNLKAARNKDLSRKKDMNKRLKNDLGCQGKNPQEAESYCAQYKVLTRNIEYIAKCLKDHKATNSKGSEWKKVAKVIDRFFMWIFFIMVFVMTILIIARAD
T7 sequence (Q9GZZ6 25-450): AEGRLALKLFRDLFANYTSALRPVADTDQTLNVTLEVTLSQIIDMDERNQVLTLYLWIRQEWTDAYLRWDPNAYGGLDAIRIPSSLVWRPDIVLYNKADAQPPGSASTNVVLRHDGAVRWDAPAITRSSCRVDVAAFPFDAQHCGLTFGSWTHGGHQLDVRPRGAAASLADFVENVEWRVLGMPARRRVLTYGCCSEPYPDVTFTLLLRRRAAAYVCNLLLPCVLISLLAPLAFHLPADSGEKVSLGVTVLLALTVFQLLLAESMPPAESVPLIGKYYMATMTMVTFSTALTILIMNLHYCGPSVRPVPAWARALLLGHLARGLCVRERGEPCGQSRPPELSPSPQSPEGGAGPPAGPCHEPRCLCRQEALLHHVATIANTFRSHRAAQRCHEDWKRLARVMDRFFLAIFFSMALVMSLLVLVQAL
T6 sequence (P36544 23-502): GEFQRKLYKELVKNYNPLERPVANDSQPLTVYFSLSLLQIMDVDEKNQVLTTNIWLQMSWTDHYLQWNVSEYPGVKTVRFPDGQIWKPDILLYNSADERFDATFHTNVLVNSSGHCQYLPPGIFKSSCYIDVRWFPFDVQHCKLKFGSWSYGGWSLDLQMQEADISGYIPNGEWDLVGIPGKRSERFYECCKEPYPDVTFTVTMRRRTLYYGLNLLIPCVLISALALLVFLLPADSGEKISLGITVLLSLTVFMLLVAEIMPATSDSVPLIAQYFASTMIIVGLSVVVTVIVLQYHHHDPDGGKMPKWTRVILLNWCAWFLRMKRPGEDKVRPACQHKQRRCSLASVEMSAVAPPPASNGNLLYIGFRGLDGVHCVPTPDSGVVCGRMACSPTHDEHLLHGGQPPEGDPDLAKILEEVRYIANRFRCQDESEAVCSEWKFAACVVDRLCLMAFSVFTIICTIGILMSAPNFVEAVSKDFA
T4 sequence (P30926 22-498): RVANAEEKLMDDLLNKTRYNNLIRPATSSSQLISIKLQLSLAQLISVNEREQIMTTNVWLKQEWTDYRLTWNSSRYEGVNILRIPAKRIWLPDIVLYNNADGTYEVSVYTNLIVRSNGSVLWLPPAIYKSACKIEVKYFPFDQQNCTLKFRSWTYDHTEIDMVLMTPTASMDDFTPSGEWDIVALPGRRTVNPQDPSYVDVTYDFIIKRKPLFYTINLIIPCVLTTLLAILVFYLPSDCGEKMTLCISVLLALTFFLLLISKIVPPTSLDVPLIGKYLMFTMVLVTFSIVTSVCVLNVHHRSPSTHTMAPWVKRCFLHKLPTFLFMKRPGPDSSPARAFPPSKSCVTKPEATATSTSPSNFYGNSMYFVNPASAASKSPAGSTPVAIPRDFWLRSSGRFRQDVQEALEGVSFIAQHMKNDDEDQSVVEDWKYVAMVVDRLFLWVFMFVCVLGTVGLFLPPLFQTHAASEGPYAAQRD
T4 sequence (P32297 32-505): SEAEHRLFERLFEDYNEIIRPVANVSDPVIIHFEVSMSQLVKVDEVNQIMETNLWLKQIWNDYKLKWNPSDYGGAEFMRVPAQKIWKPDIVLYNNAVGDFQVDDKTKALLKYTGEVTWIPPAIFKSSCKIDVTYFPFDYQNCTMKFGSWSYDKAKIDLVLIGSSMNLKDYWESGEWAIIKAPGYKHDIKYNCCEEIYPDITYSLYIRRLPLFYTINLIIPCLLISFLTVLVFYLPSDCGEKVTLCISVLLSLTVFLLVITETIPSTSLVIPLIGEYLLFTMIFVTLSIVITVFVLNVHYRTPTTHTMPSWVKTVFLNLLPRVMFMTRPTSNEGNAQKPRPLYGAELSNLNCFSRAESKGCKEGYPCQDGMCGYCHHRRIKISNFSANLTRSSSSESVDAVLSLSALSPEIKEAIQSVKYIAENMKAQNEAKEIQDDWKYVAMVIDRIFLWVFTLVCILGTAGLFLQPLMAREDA

| Compound | Relative current amplitude (h) α1β1εδ (human (h) α1β1εδ nAChR [1]) | Relative current amplitude (h)α1β1γδ (human (h) α1β1γδ nAChR) | Relative current amplitude (h)α3β2 (human (h) α3β2 nAChR) | Relative current amplitude (h)α3β4 (human (h) α3β4 nAChR) | Relative current amplitude (h)α4β2 (human (h) α4β2 nAChR) | Relative current amplitude (h)α7 (human (h) α7 nAChR) | Relative current amplitude (h)α9α10 (human (h) α9α10 nAChR) | other results |
| --- | --- | --- | --- | --- | --- | --- | --- | --- |
| CC(=O)c1cc(C)c(O)c(C[C@@]23Cc4c(O)c(C(C)=O)cc(C)c4O[C@]2(O)[C@H](CC(=O)O)OC3=O)c1O [penilactone B] | – | – | – | – | – | – | – | NF-kB inhibitory rate (NF-kB): 40% |
| trisorbicillone A | – | – | – | – | – | – | – | IC50 (HL60 cell lines; read-out: IC50, cytotoxic against HL60 cell lines): 3140 nM |
| CC(C)[C@H](NC(=O)[C@H](NC(=O)[C@@H](N)Cc1c[nH]c2ccccc12)C(C)C)C(=O)N[C@H](Cc1ccc(O)cc1)C(=O)O [Compound 3, psegynamide C] (H-W[dV]V[dY]-OH) | 0.648 ± 0.067 | 0.861 ± 0.084 | 0.451 ± 0.056 | 0.675 ± 0.040 | 0.793 ± 0.078 | 0.368 ± 0.088 | 0.509 ± 0.041 | – |
| C[C@@H]1C=CC(=O)[C@@]2(C)CC[C@@H]3[C@@H]4[C@@](C)(CC[C@@]4(C)CO)C[C@@]132 [conidiogenone C] | – | – | – | – | – | – | – | IC50 (HL60 cell lines; read-out: IC50, cytotoxicity against HL60 cell lines): 38 nM; IC50 (BEL-7047 cell lines): 900 nM |
| COC(=O)[C@@H](Cc1ccccc1)NC(=O)[C@@H](NC(=O)[C@H](NC(=O)[C@@H]1Cc2c([nH]c3ccccc23)CN1)C(C)C)C(C)C [Compound 5, psegynamide E] | 0.392 ± 0.069 | 0.799 ± 0.063 | 0.656 ± 0.074 | 0.656 ± 0.051 | 0.837 ± 0.061 | 0.399 ± 0.061 | 0.374 ± 0.073 | – |
| CC(C)C(NC(=O)C(N)Cc1c[nH]c2ccccc12)C(=O)NC(C(=O)NC(Cc1ccccc1)C(=O)O)C(C)C (stereo not shown) [Compound 1, psegynamide A] (H-WVVF-OH; configuration not given here) | 0.190 ± 0.056 | 0.664 ± 0.062 | 0.435 ± 0.071 | 0.462 ± 0.069 | 0.637± 0.053 | 0.293 ± 0.074 | 0.103 ± 0.027 | – |
| α-conotoxin GI (ECCNPACGRHYSC; ends and bridges not checked; cysteine pairing not given here; UniProt X5I9Y2 50-62, looked up) | – | – | – | – | – | – | – | IC50 (human (h) α1β1εδ nAChR [2]): 20 nM |
| CC(C)[C@H](NC(=O)[C@H](NC(=O)[C@@H]1Cc2c([nH]c3ccccc23)CN1)C(C)C)C(=O)N[C@H](Cc1ccccc1)C(=O)O [Compound 4, psegynamide D] | 0.757 ± 0.065 | 0.985 ± 0.019 | 0.924 ± 0.069 | 0.670 ± 0.049 | 0.972 ± 0.057 | 0.228 ± 0.049 | 0.824 ± 0.064 | – |
| COC(=O)[C@@H](Cc1ccc(O)cc1)NC(=O)[C@@H](NC(=O)[C@H](NC(=O)[C@@H]1Cc2c([nH]c3ccccc23)CN1)C(C)C)C(C)C [Compound 6, psegynamide F] (H-[Tpi][dV]V[dY]-OMe) | 0.618 ± 0.047 | 0.802 ± 0.096 | 0.579 ± 0.077 | 0.777 ± 0.053 | 0.938 ± 0.076 | 0.838 ± 0.066 | 0.760 ± 0.062 | – |
| COC(=O)[C@@H](Cc1ccccc1)NC(=O)[C@@H](NC(=O)[C@H](NC(=O)[C@@H](N)Cc1c[nH]c2ccccc12)C(C)C)C(C)C [Compound 2, psegynamide B] (H-W[dV]V[dF]-OMe) | 0.024 ± 0.011 | 0.017 ± 0.014 | 0.236 ± 0.069 | 0.071 ± 0.028 | 0.301 ± 0.039 | 0.566 ± 0.072 | 0.075 ± 0.036 | inhibition of ACh-evoked currents, α1β1εδ (human (h) α1β1εδ nAChR [1]; [3]): > 70%; inhibition of ACh-evoked currents, α1β1γδ (human (h) α1β1γδ nAChR; [3]): > 70% and > 98%; inhibition at 100 µM (human (h) α3β2 nAChR; [4]): > 70%; inhibition at 100 µM (human (h) α3β4 nAChR; [4]): > 70%; inhibition at 100 µM (human (h) α4β2 nAChR; [4]): > 70%; inhibition at 100 µM (human (h) α9α10 nAChR; [4]): > 70% |
| trichobotryside A | – | – | – | – | – | – | – | EC50, inhibiting the larvae settlement of Balamus amphitrite (Balamus amphitrite): 2.5 µg/mL |
| CC(=O)c1cc(C)c(O)c(C[C@]23Cc4c(O)c(C(C)=O)cc(C)c4O[C@@]2(O)[C@@H](C)OC3=O)c1O [penilactone A] | – | – | – | – | – | – | – | NF-kB inhibitory rate (NF-kB): 40% |
